Measured values: patent US9828396B2, “Alkyne compounds for treatment of complement mediated disorders” (Achillion Pharmaceuticals, Inc., priority 2014, dated 2017)

These compounds were tested against Human factor D (Homo sapiens (Human), UniProt P00746) (assay: Human Factor D Assay). Conditions: Human factor D 80 nM, substrate Z-L-Lys-SBzl, assay of Example 12.
Type: biochemical
Method: Example 12. Human Factor D Assay
Human factor D (purified from human serum, Complement Technology, Inc.) at 80 nM final concentration is incubated with test compound at various concentrations for 5 minutes at room temperature in 50 mM Tris, 1M NaCl, pH 7.5. A synthetic substrate Z-L-Lys-SBzl and DTNB (Ellman's reagent) are added to final concentrations of 100 μM each. The increase in color is recorded at OD405 nm in a microplate in kinetic mode over 30 minutes with 30 second time points in a spectrofluorimeter. IC50 values are calculated by non-linear regression from the percentage of inhibition of complement factor D activity as a function of test compound concentration.

Sequence of Human factor D (P00746 26-253): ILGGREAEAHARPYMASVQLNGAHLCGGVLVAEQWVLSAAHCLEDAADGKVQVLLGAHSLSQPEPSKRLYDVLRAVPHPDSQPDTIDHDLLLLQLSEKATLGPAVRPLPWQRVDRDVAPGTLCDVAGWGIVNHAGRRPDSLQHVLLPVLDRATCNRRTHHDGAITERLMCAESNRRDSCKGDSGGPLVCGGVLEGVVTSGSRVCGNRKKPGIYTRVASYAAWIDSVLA

Which IC50 does the source give for CC(=O)c1cn(CC(=O)N2C[C@H](F)C[C@H]2C(=O)NCc2cccc(Cl)c2F)c2ccc(C#Cc3cncnc3)cc12 [Compound 16, (2S,4R)-1-(2-(3-acetyl-5-(pyrimidin-5-ylethynyl)-1H-indol-1-yl)acetyl)-N-(3-chloro-2-fluorobenzyl)-4-fluoropyrrolidine-2-carboxamide] here?
The IC50 was less than 1 µM.

Which IC50 does the source give for NC(=O)c1nn(CC(=O)N2[C@@H]3C[C@@H]3C[C@H]2C(=O)Nc2cccc(-c3ccc(F)cc3Cl)c2F)c2ccc(C#Cc3ncc(F)cn3)cc12 [Compound 64, 1-(2-((1R,3S,5R)-3-(2′-chloro-2,4′-difluorobiphenyl-3-ylcarbamoyl)-2-azabicyclo[3.1.0]hexan-2-yl)-2-oxoethyl)-5-((5-fluoropyrimidin-2-yl)ethynyl)-1H-indazole-3-carboxamide] here?
Its IC50 is less than 1 µM.

For NC(=O)c1nn(CC(=O)N2C[C@H](F)C[C@H]2C(=O)Nc2cccc(-c3ccccc3Cl)c2F)c2ccc(C#Cc3cnccn3)cc12 [Compound 83, 1-(2-((2S,4R)-2-(2′-chloro-2-fluorobiphenyl-3-ylcarbamoyl)-4-fluoropyrrolidin-1-yl)-2-oxoethyl)-5-(pyrazin-2-ylethynyl)-1H-indazole-3-carboxamide], which IC50 is on record?
Its IC50 is less than 1 µM.

With NC(=O)c1nn(CC(=O)N2C[C@H](F)C[C@H]2C(=O)Nc2cccc(-c3cc(F)c(F)cc3Cl)c2F)c2ccc(C#Cc3ncc(F)cn3)cc12 [Compound 63, 1-(2-((2S,4R)-2-(2′-chloro-2,4′,5′-trifluorobiphenyl-3-ylcarbamoyl)-4-fluoropyrrolidin-1-yl)-2-oxoethyl)-5-((5-fluoropyrimidin-2-yl)ethynyl)-1H-indazole-3-carboxamide] as the compound, how does the IC50 read?
Its IC50 is less than 1 µM.

With CC(=O)c1cn(CC(=O)N2C[C@H](F)C[C@H]2C(=O)NCc2cccc(Cl)c2F)c2ccc(C#Cc3ccncc3)cc12 [Compound 17, (2S,4R)-1-(2-(3-acetyl-5-(pyridin-4-ylethynyl)-1H-indol-1-yl)acetyl)-N-(3-chloro-2-fluorobenzyl)-4-fluoropyrrolidine-2-carboxamide] as the compound, how does the IC50 read?
The IC50 was less than 1 µM.

For NC(=O)c1nn(CC(=O)N2[C@@H]3C[C@@H]3C[C@H]2C(=O)Nc2cccc(F)n2)c2ccc(C#Cc3ncccn3)cc12 [Compound 62, 1-(2-((1R,3S,5R)-3-(6-fluoropyridin-2-ylcarbamoyl)-2-azabicyclo[3.1.0]hexan-2-yl)-2-oxoethyl)-5-(pyrimidin-2-ylethynyl)-1H-indazole-3-carboxamide], which IC50 is on record?
The IC50 was less than 1 µM.

How did the IC50 turn out when NC(=O)c1nn(CC(=O)N2C[C@H](F)C[C@H]2C(=O)Nc2cc(C(F)(F)F)cc(Cl)n2)c2ccc(C#Cc3ncc(F)cn3)cc12 [Compound 74, 1-(2-((2S,4R)-2-(6-chloro-4-(trifluoromethyl)pyridin-2-ylcarbamoyl)-4-fluoropyrrolidin-1-yl)-2-oxoethyl)-5-((5-fluoropyrimidin-2-yl)ethynyl)-1H-indazole-3-carboxamide] was run?
Its IC50 is less than 1 µM.

Which IC50 does the source give for NC(=O)c1nn(CC(=O)N2C[C@H](F)C[C@H]2C(=O)NCc2cccc(Cl)c2F)c2ccc(C#Cc3cn[nH]c3)cc12 [Compound 29, 5-((1H-pyrazol-4-yl)ethynyl)-1-(2-((2S,4R)-2-(3-chloro-2-fluorobenzylcarbamoyl)-4-fluoropyrrolidin-1-yl)-2-oxoethyl)-1H-indazole-3-carboxamide] here?
The IC50 was less than 1 µM.

With N#Cc1ccc(C#Cc2ccc3c(c2)c(C(N)=O)nn3CC(=O)N2[C@@H]3C[C@@H]3C[C@H]2C(=O)Nc2cccc(Br)n2)nc1 [Compound 60, 1-(2-((1R,3S,5R)-3-(6-bromopyridin-2-ylcarbamoyl)-2-azabicyclo[3.1.0]hexan-2-yl)-2-oxoethyl)-5-((5-cyanopyridin-2-yl)ethynyl)-1H-indazole-3-carboxamide] as the compound, how does the IC50 read?
The IC50 was less than 1 µM.

How did the IC50 turn out when CC(=O)c1cn(CC(=O)N2C[C@H](F)C[C@H]2C(=O)NCc2cccc(Cl)c2F)c2cc(C#C[Si](C)(C)C)ccc12 [Compound 3, (2S,4R)-1-(2-(3-acetyl-6-((trimethylsilyl)ethynyl)-1H-indol-1-yl)acetyl)-N-(3-chloro-2-fluorobenzyl)-4-fluoropyrrolidine-2-carboxamide] was run?
Its IC50 is less than 1 µM.

Which IC50 does the source give for NC(=O)c1nn(CC(=O)N2C[C@H](F)C[C@H]2C(=O)NCc2cccc(Cl)c2F)c2ccc(C#Cc3ncccn3)cc12 [Compound 20, 1-(2-((2S,4R)-2-(3-chloro-2-fluorobenzylcarbamoyl)-4-fluoropyrrolidin-1-yl)-2-oxoethyl)-5-(pyrimidin-2-ylethynyl)-1H-indazole-3-carboxamide] here?
Its IC50 is less than 1 µM.

O=C(O)C#Cc1ccc2c(C(=O)C(F)(F)F)cn(CC(=O)N3C[C@H](F)C[C@H]3C(=O)NCc3cccc(Cl)c3F)c2c1 [Compound 11, 3-(1-(2-((2S,4R)-2-(3-chloro-2-fluorobenzylcarbamoyl)-4-fluoropyrrolidin-1-yl)-2-oxoethyl)-3-(2,2,2-trifluoroacetyl)-1H-indol-6-yl)propiolic acid] was tested. Which IC50 did it give?
The IC50 was less than 1 µM.

How did the IC50 turn out when NC(=O)c1nn(CC(=O)N2C[C@H](F)C[C@H]2C(=O)NCc2cccc(Cl)c2F)c2cnc(C#Cc3ccccc3)cc12 [Compound 67, 1-(2-((2S,4R)-2-(3-chloro-2-fluorobenzylcarbamoyl)-4-fluoropyrrolidin-1-yl)-2-oxoethyl)-5-(phenylethynyl)-1H-pyrazolo[3,4-c]pyridine-3-carboxamide] was run?
The IC50 was less than 1 µM.

For NC(=O)c1nn(CC(=O)N2C[C@H](F)C[C@H]2C(=O)NCc2cccc(Cl)c2F)c2ccc(C#Cc3ccccn3)cc12 [Compound 23, 1-(2-((2S,4R)-2-(3-chloro-2-fluorobenzylcarbamoyl)-4-fluoropyrrolidin-1-yl)-2-oxoethyl)-5-(pyridin-2-ylethynyl)-1H-indazole-3-carboxamide], which IC50 is on record?
Its IC50 is less than 1 µM.

For NC(=O)c1nn(CC(=O)N2C[C@H](F)C[C@H]2C(=O)NCc2cccc(Cl)c2F)c2ccc(C#Cc3ncc(F)cn3)cc12 [Compound 40, 1-(2-((2S,4R)-2-(3-chloro-2-fluorobenzylcarbamoyl)-4-fluoropyrrolidin-1-yl)-2-oxoethyl)-5-((5-fluoropyrimidin-2-yl)ethynyl)-1H-indazole-3-carboxamide], which IC50 is on record?
Its IC50 is less than 1 µM.

How did the IC50 turn out when NC(=O)c1nn(CC(=O)N2[C@@H]3C[C@@H]3C[C@H]2C(=O)Nc2cccc(-c3ccccc3Cl)c2F)c2ccc(C#Cc3ncc(F)cn3)cc12 [Compound 53, 1-(2-((1R,3S,5R)-3-(2′-chloro-2-fluorobiphenyl-3-ylcarbamoyl)-2-azabicyclo[3.1.0]hexan-2-yl)-2-oxoethyl)-5-((5-fluoropyrimidin-2-yl)ethynyl)-1H-indazole-3-carboxamide] was run?
The IC50 was less than 1 µM.

How did the IC50 turn out when CC1(C)CCCC(NC(=O)[C@@H]2C[C@@H](F)CN2C(=O)Cn2nc(C(N)=O)c3cc(C#Cc4ncccn4)ccc32)C1 (stereo partly drawn) [Compound 44, 1-(2-((2S,4R)-2-(3,3-dimethylcyclohexylcarbamoyl)-4-fluoropyrrolidin-1-yl)-2-oxoethyl)-5-(pyrimidin-2-ylethynyl)-1H-indazole-3-carboxamide] was run?
Its IC50 is less than 1 µM.

How did the IC50 turn out when NC(=O)c1nn(CC(=O)N2C[C@H](F)C[C@H]2C(=O)Nc2cccc(-c3cccc(Cl)c3)c2F)c2ccc(C#Cc3ncccn3)cc12 [Compound 30, 1-(2-((2S,4R)-2-(3′-chloro-2-fluorobiphenyl-3-ylcarbamoyl)-4-fluoropyrrolidin-1-yl)-2-oxoethyl)-5-(pyrimidin-2-ylethynyl)-1H-indazole-3-carboxamide] was run?
The IC50 was less than 1 µM.

NC(=O)c1nn(CC(=O)N2[C@@H]3C[C@@H]3C[C@H]2C(=O)Nc2cccc(Cl)n2)c2ccc(C#Cc3ncccn3)cc12 [Compound 56, 1-(2-((1R,3S,5R)-3-(6-chloropyridin-2-ylcarbamoyl)-2-azabicyclo[3.1.0]hexan-2-yl)-2-oxoethyl)-5-(pyrimidin-2-ylethynyl)-1H-indazole-3-carboxamide] was tested. Which IC50 did it give?
The IC50 was less than 1 µM.

With NC(=O)c1nn(CC(=O)N2C[C@H](F)C[C@H]2C(=O)Nc2cccc(-c3ccccc3Cl)c2F)c2ccc(C#Cc3ncccn3)cc12 [Compound 22, 1-(2-((2S,4R)-2-(2′-chloro-2-fluorobiphenyl-3-ylcarbamoyl)-4-fluoropyrrolidin-1-yl)-2-oxoethyl)-5-(pyrimidin-2-ylethynyl)-1H-indazole-3-carboxamide] as the compound, how does the IC50 read?
Its IC50 is less than 1 µM.

Which IC50 does the source give for NC(=O)c1nn(CC(=O)N2C[C@H](F)C[C@H]2C(=O)Nc2ccc(C(F)(F)F)c(Cl)n2)c2ccc(C#Cc3ncc(F)cn3)cc12 [Compound 76, 1-(2-((2S,4R)-2-(6-chloro-5-(trifluoromethyl)pyridin-2-ylcarbamoyl)-4-fluoropyrrolidin-1-yl)-2-oxoethyl)-5-((5-fluoropyrimidin-2-yl)ethynyl)-1H-indazole-3-carboxamide] here?
Its IC50 is less than 1 µM.

Which IC50 does the source give for NC(=O)c1nn(CC(=O)N2C[C@H](F)C[C@H]2C(=O)Nc2cccc(OC(F)(F)F)c2F)c2ccc(C#Cc3ncccn3)cc12 [Compound 38, 1-(2-((2S,4R)-4-fluoro-2-(2-fluoro-3-(trifluoromethoxy)phenyl-carbamoyl)pyrrolidin-1-yl)-2-oxoethyl)-5-(pyrimidin-2-ylethynyl)-1H-indazole-3-carboxamide] here?
Its IC50 is less than 1 µM.

Which IC50 does the source give for NC(=O)c1nn(CC(=O)N2[C@@H]3C[C@@H]3C[C@H]2C(=O)Nc2cccc(OC(F)(F)F)c2F)c2ccc(C#Cc3ncccn3)cc12 [Compound 34, 1-(2-((1R,3S,5R)-3-(2-fluoro-3-(trifluoromethoxy)phenyl-carbamoyl)-2-azabicyclo[3.1.0]hexan-2-yl)-2-oxoethyl)-5-(pyrimidin-2-ylethynyl)-1H-indazole-3-carboxamide] here?
Its IC50 is less than 1 µM.

Which IC50 does the source give for NC(=O)c1nn(CC(=O)N2CCS[C@H]2C(=O)Nc2cccc(-c3ccccc3Cl)c2F)c2ccc(C#Cc3ncccn3)cc12 [Compound 66, (S)-3-(2-(3-carbamoyl-5-(pyrimidin-2-ylethynyl)-1H-indazol-1-yl)acetyl)-N-(2′-chloro-2-fluorobiphenyl-3-yl)thiazolidine-2-carboxamide] here?
The IC50 was less than 1 µM.
